Drawing on ChEMBL document CHEMBL1136198, “Pyrazolo[4,3-d]pyrimidines as new generation of cyclin-dependent kinase inhibitors” (Bioorg Med Chem Lett, 2003), this text covers IC50 for 22 compounds.

SMILES strings stand for the structures. Where only a bound is given, the exact number is not on record here.

Test [1] addresses Cyclin-dependent kinase 1/cyclin B (Homo sapiens, UniProt P06493). As to the kind of experiment: Inhibitory concentration against Cyclin-dependent kinase 1-cyclin B. The class given is protein-complex assay.
Test [2] deals with K-562 cell line (Homo sapiens). The settings on record: k562.

With `COc1ccc(CNc2ncnc3c(C(C)C)n[nH]c23)cc1`, the IC50 against K-562 (Homo sapiens) amounted to 46 µM.
Regarding `CC(C)n1cnc2c(NCc3cccc(O)c3)ncnc21`, the IC50 in test [1] is 3.1 µM; in test [2], greater than 167 uM dm**-3.
Turning to `CC(C)c1n[nH]c2c(NCc3ccccc3Br)ncnc12`, the IC50 was 11 µM in test [1] and 29 µM against K-562 (Homo sapiens).
On to `CC(C)c1n[nH]c2c(NCc3ccccc3O)ncnc12`, for which the IC50 on K-562 (Homo sapiens) worked out at 54 µM.
For `CCCCCNc1ncnc2c(C(C)C)n[nH]c12`, the IC50 in test [1] was found to be 1.2 µM; on K-562 (Homo sapiens) it was 61 µM.
Consider `CC(C)n1cnc2c(Nc3cccc(Cl)c3)ncnc21`, for which the IC50 is 5.9 µM in test [1] and 54 µM at K-562 (Homo sapiens).
In the same order, the values of `CC(C)c1n[nH]c2c(Nc3cccc(Cl)c3)ncnc12` are 0.9 µM and 18.4 µM.
For the compound `CC(C)c1n[nH]c2c(NCc3ccc(O)cc3)ncnc12`, the IC50 in test [2] was 112 uM dm**-3.
As to `CC(C)c1n[nH]c2c(NCc3ccco3)ncnc12`, the IC50 in test [1] is 2.5 µM; in test [2], greater than 167 uM dm**-3.
The corresponding values for `CC(C)n1cnc2c(NCc3ccco3)ncnc21` are 9.1 µM and greater than 167 uM dm**-3.
Turning to `CC(C)=CCNc1ncnc2c1ncn2C(C)C`, the IC50 is 17 µM in test [1] and greater than 167 uM dm**-3 in test [2].
For `CC(C)n1cnc2c(NCc3ccc(O)cc3)ncnc21`, the IC50 in test [1] is 4 µM; in test [2], greater than 167 uM dm**-3.
As to `CC(C)n1cnc2c(NCc3ccccc3Br)ncnc21`, the IC50 in test [1] worked out at 23 µM; on K-562 (Homo sapiens), 49 µM.
For the compound `CC(C)=CCNc1ncnc2c(C(C)C)n[nH]c12`, the IC50 in test [2] was 152 uM dm**-3.
Regarding `COc1ccc(CNc2ncnc3c(C(C)C)n[nH]c23)cc1O`, the figures for the IC50 (in test [1]; against K-562 (Homo sapiens)) were 1.1 µM and 26 µM, respectively.
In the same order, the values of `CC(C)c1n[nH]c2c(NCc3cccc(O)c3)ncnc12` are 1.7 µM and 88 µM.
Take `CC(C)n1cnc2c(NCc3ccccc3)ncnc21`: the values for the IC50 in test [1] and in test [2] were 3.6 µM and 113 uM dm**-3, respectively.
Consider `COc1ccc(CNc2ncnc3c2ncn3C(C)C)cc1O`, for which the values for the IC50 in test [1] and in test [2] were 4.5 µM and 104 uM dm**-3, respectively.
With `CC(C)c1n[nH]c2c(NCc3ccccc3)ncnc12`, the results for the IC50 (in test [1]; at K-562 (Homo sapiens)) were 1.2 µM and 66 µM, respectively.
As to `CCCCCNc1ncnc2c1ncn2C(C)C`, the IC50 in test [1] came to 6.9 µM; in test [2], 144 uM dm**-3.
`CC(C)n1cnc2c(NCc3ccccc3O)ncnc21`: the IC50 in test [1] was 4.4 µM; in test [2], 125 uM dm**-3.
The corresponding values for `COc1ccc(CNc2ncnc3c2ncn3C(C)C)cc1` are 3.8 µM and greater than 167 uM dm**-3.
